According to patent US20250346616A1 (DIZAL (JIANGSU) PHARMACEUTICAL CO., LTD., priority 2022, published 2025):

Assays:
[1] = molecular target: Recombinant ROCK1 (Homo sapiens (Human), UniProt Q13464); assay: Lance Ultra Kinase Assay, ROCK1 inhibition; assay type: biochemical; conditions: ATP at Km, 30 min pre-incubation, 1 h reaction
Procedure: The inhibition potency of compounds against these enzymes was assessed using Lance Ultra Kinase Assay. In brief, recombinant kinases were pre-incubated in the presence or absence of compound at room temperature for 30 minutes. The reaction was initiated by the addition of the ATP (Km) and substrate peptide which could be phosphorylated by kinases in the reaction. After 1 h incubation, the reaction was stopped by the addition of the detection reagent mix containing EDTA. The fluorescence was measured at 615 nm and 665 nm, respectively with excitation wavelength at 320 nm. The calculated signal ratio of 665 nm/615 nm is proportional to the kinase activity.

[2] = tested on: pMYPT1; assay: Cellular PD assay, pMYPT1 in PASMC (western blot); assay type: cell-based; conditions: Human Pulmonary Artery Smooth Muscle Cells, 30 min incubation
Procedure: (§1) PASMC (Human Pulmonary Artery Smooth Muscle Cells) were grown in Smooth Muscle Cell Growth medium (Promocell #C-22162). The cells were resuspended at 3×10^5 cells per well in 6-well plate in Smooth Muscle Cell Growth medium (Promocell #C-22162) and incubated compound concentration range: (10000/1111/333/111/37/12.3/4.1/0.41/0 nM) for 30 min.
(§2) Cells were then placed on ice and washed with ice-cold PBS. Cell lysates were prepared with 2×SDS. Separate proteins by SDS-PAGE 2 hr, transfer of proteins form gel to membrane 90 min, Blocking the membrane with 5% milk 1 hr and incubation in primary antibody overnight at 4° C., Incubate the membrane in HRP-conjugated secondary antibody diluted in blocking buffer (1:2000) for 1 hour at room temperature. Detection using Amersham ECL plus western blotting detection system (LAS4000). The purified product was analysed by SDS PAGE and the amount of target protein calculated by gray scanning by Multi-Gauge V3.0 software.

[3] = tested on: pMLC2; assay: Cellular PD assay, pMLC2 in PASMC (western blot); assay type: cell-based; conditions: Human Pulmonary Artery Smooth Muscle Cells, 30 min incubation
Procedure: as §1, §2

[4] = molecular target: Recombinant ROCK2 (Homo sapiens (Human), UniProt O75116); assay: Lance Ultra Kinase Assay, ROCK2 inhibition; assay type: biochemical; conditions: ATP at Km, 30 min pre-incubation, 1 h reaction
Recombinant ROCK2, sequence (O75116 whole entry): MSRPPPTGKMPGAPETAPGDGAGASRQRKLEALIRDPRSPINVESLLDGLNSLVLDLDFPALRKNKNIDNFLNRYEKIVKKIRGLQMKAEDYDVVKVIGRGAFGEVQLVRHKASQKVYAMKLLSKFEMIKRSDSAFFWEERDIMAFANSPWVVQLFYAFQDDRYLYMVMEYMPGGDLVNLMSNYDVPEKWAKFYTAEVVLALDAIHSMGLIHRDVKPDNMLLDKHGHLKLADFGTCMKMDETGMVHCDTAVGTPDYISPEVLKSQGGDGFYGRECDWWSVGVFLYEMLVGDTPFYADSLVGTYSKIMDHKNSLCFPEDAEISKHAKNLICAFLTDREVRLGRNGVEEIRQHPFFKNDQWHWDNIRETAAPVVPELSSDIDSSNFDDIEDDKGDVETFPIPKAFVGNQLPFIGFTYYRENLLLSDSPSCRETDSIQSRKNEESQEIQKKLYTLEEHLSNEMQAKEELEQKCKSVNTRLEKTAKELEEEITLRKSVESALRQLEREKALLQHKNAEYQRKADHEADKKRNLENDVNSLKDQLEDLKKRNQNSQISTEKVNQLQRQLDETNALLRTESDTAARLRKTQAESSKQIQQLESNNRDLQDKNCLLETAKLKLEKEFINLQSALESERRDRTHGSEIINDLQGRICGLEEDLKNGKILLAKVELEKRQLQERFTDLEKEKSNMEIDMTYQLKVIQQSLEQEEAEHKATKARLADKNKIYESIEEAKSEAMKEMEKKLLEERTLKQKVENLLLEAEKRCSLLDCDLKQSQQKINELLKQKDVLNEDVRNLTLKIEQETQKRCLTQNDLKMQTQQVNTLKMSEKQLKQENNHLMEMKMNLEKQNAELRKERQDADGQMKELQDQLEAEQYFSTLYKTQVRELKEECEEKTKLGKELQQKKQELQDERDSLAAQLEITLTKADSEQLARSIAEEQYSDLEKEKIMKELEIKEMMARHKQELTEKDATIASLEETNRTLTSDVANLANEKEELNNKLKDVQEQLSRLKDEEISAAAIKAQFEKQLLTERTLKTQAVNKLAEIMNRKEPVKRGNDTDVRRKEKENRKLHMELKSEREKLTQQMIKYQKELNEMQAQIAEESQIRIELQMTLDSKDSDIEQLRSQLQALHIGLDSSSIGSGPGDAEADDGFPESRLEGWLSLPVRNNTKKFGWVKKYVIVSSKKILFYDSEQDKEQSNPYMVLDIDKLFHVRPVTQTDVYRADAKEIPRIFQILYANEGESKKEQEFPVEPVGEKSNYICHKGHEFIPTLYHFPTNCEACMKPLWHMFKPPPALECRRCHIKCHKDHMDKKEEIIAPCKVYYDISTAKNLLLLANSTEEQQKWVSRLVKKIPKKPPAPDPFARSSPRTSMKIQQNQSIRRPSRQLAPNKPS

[5] = tested on: HepG2 cells; assay: Cell-based phospholipidosis assay (LipidTOX Red); conditions: Homo sapiens, 24 h, LipidTOX Red dye
Procedure: HepG2 cells were dispensed into Collagen I-coated 96-well black wall/clear bottom assay plates at 5000 cells/90 μL/well.
The assay plates were then incubated at 37° C. for 24 h, […] of 8% paraformaldehyde (4% final) fixative solution containing 8 μg/ml Hoechst 33342 (4 ug/mL final) in DPBS was added to each well. After incubation at room temperature for 25 min, the assay plates were washed with DPBS. The assay plates were sealed and stored at 4° C. before imaging.
The fluorescence intensities (595 nm excitation, 615 nm emission for LipidTOX Red; 352 nm excitation, 461 nm emission for Hoechst 33342) were measured using an High Content Screening System (Operetta, PerkinElmer) with a 10×Fluor objective. […] Average intensities were subjected to Prism and EC50 were calculated.

Recombinant ROCK1, sequence (Q13464 whole entry): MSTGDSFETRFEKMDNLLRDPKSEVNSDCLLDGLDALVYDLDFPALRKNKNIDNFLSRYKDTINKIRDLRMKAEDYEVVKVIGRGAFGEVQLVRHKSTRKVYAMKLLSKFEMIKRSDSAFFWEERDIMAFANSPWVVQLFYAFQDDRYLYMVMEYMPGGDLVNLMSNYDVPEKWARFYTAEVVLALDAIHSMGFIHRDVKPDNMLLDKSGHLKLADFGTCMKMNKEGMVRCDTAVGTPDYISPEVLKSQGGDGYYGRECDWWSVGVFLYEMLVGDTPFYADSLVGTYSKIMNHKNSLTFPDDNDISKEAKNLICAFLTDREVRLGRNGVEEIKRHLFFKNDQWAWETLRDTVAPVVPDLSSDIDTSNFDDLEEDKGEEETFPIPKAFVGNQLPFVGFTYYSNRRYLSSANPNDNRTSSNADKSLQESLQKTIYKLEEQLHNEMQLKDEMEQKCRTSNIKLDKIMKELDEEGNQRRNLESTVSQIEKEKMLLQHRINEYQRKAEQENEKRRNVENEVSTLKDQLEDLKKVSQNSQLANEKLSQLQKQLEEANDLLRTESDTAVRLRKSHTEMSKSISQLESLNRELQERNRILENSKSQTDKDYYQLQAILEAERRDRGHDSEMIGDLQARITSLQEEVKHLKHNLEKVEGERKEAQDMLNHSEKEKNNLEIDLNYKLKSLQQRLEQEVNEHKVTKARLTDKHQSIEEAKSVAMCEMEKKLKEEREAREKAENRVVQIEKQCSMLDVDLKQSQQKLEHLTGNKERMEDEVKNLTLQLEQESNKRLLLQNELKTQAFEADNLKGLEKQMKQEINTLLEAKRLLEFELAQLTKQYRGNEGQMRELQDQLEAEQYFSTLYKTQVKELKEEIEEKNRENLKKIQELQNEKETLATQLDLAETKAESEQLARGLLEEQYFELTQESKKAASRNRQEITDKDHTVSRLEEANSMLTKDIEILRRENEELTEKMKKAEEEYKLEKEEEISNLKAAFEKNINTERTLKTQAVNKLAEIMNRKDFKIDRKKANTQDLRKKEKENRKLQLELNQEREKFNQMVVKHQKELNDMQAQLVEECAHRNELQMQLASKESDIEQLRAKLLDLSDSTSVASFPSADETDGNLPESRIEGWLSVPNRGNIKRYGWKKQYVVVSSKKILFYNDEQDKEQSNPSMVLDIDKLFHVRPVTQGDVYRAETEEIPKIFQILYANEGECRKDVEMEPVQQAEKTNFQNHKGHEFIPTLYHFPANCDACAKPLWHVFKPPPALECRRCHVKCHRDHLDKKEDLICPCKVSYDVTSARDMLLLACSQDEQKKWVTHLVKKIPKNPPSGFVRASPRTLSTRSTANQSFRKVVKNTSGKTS

IC50 [1] [nM]	IC50 ([2]; PASMC, 0.5 h) [nM]	IC50 ([3]; PASMC, 0.5 h) [nM]	IC50 [4] [nM]	IC50 [2] [nM]	IC50 [3] [nM]	Compound	EC50 [5] [µM]
1.3	18	102	0.66			CN1CCC(C(C(=O)Nc2cccc3c(-c4cn[nH]c4)c[nH]c23)c2ccccc2)CC1 (racemic) [Example 43, N-(3-(1H-pyrazol-4-yl)-1H-indol-7-yl)-2-(1-methylpiperidin-4-yl)-2-phenylacetamide]	
		8.3				COc1cccc(C(CN)C(=O)Nc2ncnc3c(-c4cn[nH]c4)c[nH]c23)c1 (stereo not drawn) [Example 154, N-(7-(1H-pyrazol-4-yl)-5H-pyrrolo[3,2-d]pyrimidin-4-yl)-3-amino-2-(3-methoxyphenyl)propanamide]	
4.5	26	1.3	1.2			NC[C@@H](NC(=O)c1cccc2c(-c3cn[nH]c3)n[nH]c12)c1ccccc1 [Example 135, N-[(1S)-2-amino-1-phenyl-ethyl]-3-(1H-pyrazol-4-yl)-1H-indazole-7-carboxamide]	
1.1	1.5	13	0.88			NCC(C(=O)Nc1cccc2c(-c3cn[nH]c3)c[nH]c12)C1CCCCC1 (racemic) [Example 22, 3-amino-2-cyclohexyl-N-[3-(1H-pyrazol-4-yl)-1H-indol-7-yl]propanamide]	
0.24	2.2	15				N[C@H](C(=O)Nc1cccc2c(-c3cn[nH]c3)c[nH]c12)c1ccccc1 [Example 9, (2S)-2-amino-2-phenyl-N-[3-(1H-pyrazol-4-yl)-1H-indol-7-yl]acetamide]	
34		13				NC(C(=O)Nc1cccc2c(-c3cn[nH]c3)c[nH]c12)c1ccccc1 (racemic) [Example 7, N-(3-(1H-pyrazol-4-yl)-1H-indol-7-yl)-2-amino-2-phenylacetamide]	
0.62	1.9	5.1	0.24			COc1cccc(C(CN)NC(=O)c2cccc3c(-c4cn[nH]c4)c[nH]c23)c1 (single isomer, unassigned) [Example 136, N-(2-amino-1-(3-methoxyphenyl)ethyl)-3-(1H-pyrazol-4-yl)-1H-indole-7-carboxamide]	
0.93		12	0.59			NCC(Cc1ccccc1)C(=O)Nc1cccc2c(-c3cn[nH]c3)c[nH]c12 (racemic) [Example 52, 3-amino-2-benzyl-N-[3-(1H-pyrazol-4-yl)-1H-indol-7-yl]propanamide]	
0.53	11	29	0.27			CN1CCC(C(C(=O)Nc2cccc3c(-c4cn[nH]c4)c[nH]c23)c2ccccc2)CC1 (single isomer, unassigned) [Example 45, N-(3-(1H-pyrazol-4-yl)-1H-indol-7-yl)-2-(1-methylpiperidin-4-yl)-2-phenylacetamide]	
						Cc1ccc(C(=O)OCc2ccc([C@@H](CN)C(=O)Nc3ccc4cnccc4c3)cc2)c(C)c1 [Netarsudil]	0.89
				22	14	NC[C@@H](C(=O)Nc1ccc2cnccc2c1)c1ccc(CO)cc1 [Netasudil-M1]	
0.19	4.3	3.5	0.13			NCC(C(=O)Nc1cccc2c(-c3cn[nH]c3)c[nH]c12)C1CCCCC1 (single isomer, unassigned) [Example 23, N-(3-(1H-pyrazol-4-yl)-1H-indol-7-yl)-3-amino-2-cyclohexylpropanamide]	
31			15			COc1cccc(C(CN)C(=O)Nc2cccc3c(-c4cn[nH]c4)c[nH]c23)c1 (single isomer, unassigned) [Example 17, N-(3-(1H-pyrazol-4-yl)-1H-indol-7-yl)-3-amino-2-(3-methoxyphenyl)propanamide]	
3.7			2.3			NCC(C(=O)Nc1cccc2c(-c3cn[nH]c3)c[nH]c12)C1CCCC1 (racemic) [Example 95, 3-amino-2-cyclopentyl-N-[3-(1H-pyrazol-4-yl)-1H-indol-7-yl]propanamide]	
2.7			0.98			N#Cc1ccc(C(CN)C(=O)Nc2cccc3c(-c4cn[nH]c4)c[nH]c23)cc1 (racemic) [Example 86, 3-amino-2-(4-cyanophenyl)-N-[3-(1H-pyrazol-4-yl)-1H-indol-7-yl]propanamide]	
33			22			CNC(=O)OCc1cccc(C(CN)C(=O)Nc2cccc3c(-c4cn[nH]c4)c[nH]c23)c1 (single isomer, unassigned) [Example 51, 3-(1-((3-(1H-pyrazol-4-yl)-1H-indol-7-yl)amino)-3-amino-1-oxopropan-2-yl)benzyl methylcarbamate]	
16			6			CC(=O)Nc1ccc(C(CN)C(=O)Nc2cccc3c(-c4cnn(C(=O)OC(C)(C)C)c4)c[nH]c23)cc1 (racemic) [Example 92, tert-butyl 4-{7-[3-amino-2-(4-acetamidophenyl)propanamido]-1H-indol-3-yl}pyrazole-1-carboxylate]	
8			4.3			Cc1ccc(C(=O)OCc2ccc(C(CN)C(=O)Nc3cccc4c(-c5cn[nH]c5)c[nH]c34)cc2)c(C)c1 (single isomer, unassigned) [Example 5]	
0.29			0.18			Cc1cccc(C(CN)C(=O)Nc2cccc3c(-c4cn[nH]c4)c[nH]c23)c1 (racemic) [Example 87, N-(3-(1H-pyrazol-4-yl)-1H-indol-7-yl)-3-amino-2-(m-tolyl)propanamide]	
6.6			3.3			COc1cncc(C(CN2CCN(C)CC2)C(=O)Nc2cccc3c(-c4cn[nH]c4)c[nH]c23)c1 (single isomer, unassigned) [Example 110, N-(3-(1H-pyrazol-4-yl)-1H-indol-7-yl)-2-(5-methoxypyridin-3-yl)-3-(4-methylpiperazin-1-yl)propanamide]	
0.84			0.37			COc1cccc(C(CN)C(=O)Nc2cccc3c(-c4cn[nH]c4)c[nH]c23)c1 (racemic) [Example 16, N-(3-(1H-pyrazol-4-yl)-1H-indol-7-yl)-3-amino-2-(3-methoxyphenyl)propanamide]	
68			31			Cc1cncc(C(CN)C(=O)Nc2cccc3c(-c4cn[nH]c4)c[nH]c23)c1 (single isomer, unassigned) [Example 62, N-(3-(1H-pyrazol-4-yl)-1H-indol-7-yl)-3-amino-2-(5-methylpyridin-3-yl)propanamide]	
0.71	6.2	8	0.43			CN1CCN(CC(C(=O)Nc2cccc3c(-c4cn[nH]c4)c[nH]c23)c2ccccc2)CC1 (racemic) [Example 37, N-(3-(1H-pyrazol-4-yl)-1H-indol-7-yl)-3-(4-methylpiperazin-1-yl)-2-phenylpropanamide]	
4			2.3			CN1CCN(C(C(=O)Nc2cccc3c(-c4cn[nH]c4)c[nH]c23)c2ccccc2)CC1 (racemic) [Example 46, 2-(4-methylpiperazin-1-yl)-2-phenyl-N-[3-(1H-pyrazol-4-yl)-1H-indol-7-yl]acetamide]	
84			32			NCc1ccc(C(CN)C(=O)Nc2cccc3c(-c4cn[nH]c4)c[nH]c23)cc1 (racemic) [Example 77, 3-amino-2-[4-(aminomethyl)phenyl]-N-[3-(1H-pyrazol-4-yl)-1H-indol-7-yl]propanamide]	
21			5.7			NC[C@@H](NC(=O)c1cncc2c(-c3cn[nH]c3)c[nH]c12)c1ccccc1 [Example 148, N-[(1S)-2-amino-1-phenyl-ethyl]-3-(1H-pyrazol-4-yl)-1H-pyrrolo[3,2-c]pyridine-7-carboxamide]	
201			121			CN1CCN(C(C(=O)Nc2cccc3c(-c4cn[nH]c4)c[nH]c23)c2ccccc2)CC1 (single isomer, unassigned) [Example 47, N-(3-(1H-pyrazol-4-yl)-1H-indol-7-yl)-2-(4-methylpiperazin-1-yl)-2-phenylacetamide]	
1.3			0.96			COc1ccccc1C(CN)C(=O)Nc1cccc2c(-c3cn[nH]c3)c[nH]c12 (racemic) [Example 84, 3-amino-2-(2-methoxyphenyl)-N-[3-(1H-pyrazol-4-yl)-1H-indol-7-yl]propanamide]	
175			116			CN1CCN(CC(C(=O)Nc2cccc3c(-c4cn[nH]c4)c[nH]c23)c2ccccc2)CC1 (single isomer, unassigned) [Example 39, N-(3-(1H-pyrazol-4-yl)-1H-indol-7-yl)-3-(4-methylpiperazin-1-yl)-2-phenylpropanamide]	
